Laboratory results reported in ChEMBL document CHEMBL5365475, “Design, synthesis and antiplasmodial evaluation of new amide-, carbamate-, and ureido-type harmicines” (Bioorg Med Chem, 2023).
Activity calls are given as the source filed them. No cut-off for these calls is given here.

Tests used:
[1] = Selectivity index, ratio of IC50 for cytotoxicity against human HepG2 cells to IC50 for erythrocytic stage of chloroquine-sensitive Plasmodium falciparum 3D7; assay type: toxicity, cell-based; details: read-out: Ratio IC50
Plasmodium falciparum [2] = assay: Resistance index, ratio of IC50 for antiplasmodial activity against chloroquine-resistant Plasmodium falciparum Dd2 to IC50 for antiplasmodial activity against chloroquine-sensitive Plasmodium falciparum 3D7; assay type: functional
HepG2 = assay: Cytotoxicity against human HepG2 cells assessed as reduction in cell viability incubated for 72 hrs by MTT assay; assay type: functional, cell-based; details: HepG2, 72 h
Plasmodium falciparum [3] = assay: Antimalarial activity against erythrocytic stage of chloroquine-resistant Plasmodium falciparum Dd2 measured after 3 days by HRP2-ELISA analysis; assay type: functional, organism-based; details: Dd2, 72 h
Plasmodium berghei [4] = assay: Antiplasmodial activity against luciferase-expressing Plasmodium berghei infected in human Huh-7 cells assessed as reduction in parasite load at 1 to 10 uM preincubated with cells for 1 hr followed by parasite infection and measured after 46 hrs by bioluminescence assay; assay type: functional, organism-based; details: dose 1-10 µM, time 47.0 hrs
Plasmodium falciparum [5] = assay: Antimalarial activity against erythrocytic stage of chloroquine-sensitive Plasmodium falciparum 3D7 measured after 3 days by HRP2-ELISA analysis; assay type: functional, organism-based; details: 3D7, 72 h
Plasmodium berghei [6] = assay: Antiplasmodial activity against luciferase-expressing Plasmodium berghei infected in human Huh-7 cells assessed as reduction in parasite load preincubated with cells for 1 hr followed by parasite infection and measured after 46 hrs by bioluminescence assay; assay type: functional, organism-based

Compound	selectivity ratio [1]	Ratio IC50 (Plasmodium falciparum [2])	IC50 (HepG2) [nM]	IC50 (Plasmodium falciparum [3]) [nM]	Activity (Plasmodium berghei [4])	IC50 (Plasmodium falciparum [5]) [nM]	IC50 (Plasmodium berghei [6]) [nM]
COc1ccc2c(c1)[nH]c1c(C)nccc12 [HARMINE]	30	> 3.36	> 250000	> 27700	–	–	–
COc1ccc2c3ccnc(C)c3n(CCNC(=O)OC/C=C/c3ccc(C)cc3)c2c1	8.78	2.48	9920	2280	Active	1130	–
COc1ccc2c3ccnc(C)c3n(CCNC(=O)/C=C/c3ccc(Br)cc3)c2c1	8.76	–	8580	–	Active	410	–
COc1ccc2c3ccnc(C)c3n(CCNC(=O)/C=C/c3cccc(OC(F)(F)F)c3)c2c1	16.2	6.03	6640	2110	Active	350	2290
COc1ccc2c3ccnc(C)c3n(CCNC(=O)OC/C=C/c3ccc(Br)cc3)c2c1	21.6	2.6	9050	1090	Active	420	–
COc1ccc2c3ccnc(C)c3n(CCNC(=O)OC/C=C/c3cccc(Cl)c3)c2c1	8.78	1.23	8520	1190	Active	970	–
COc1ccc2c3ccnc(C)c3n(CCNC(=O)/C=C/c3cccc(Cl)c3)c2c1	25.6	2.06	8970	680	Active	330	–
CCCOc1ccc(/C=C/COC(=O)NCCn2c3cc(OC)ccc3c3ccnc(C)c32)cc1	19.9	2.13	9960	830	Active	390	–
COc1ccc2c3ccnc(C)c3n(CCNC(=O)NC/C=C/c3cccc(C(F)(F)F)c3)c2c1	44.7	4.86	9840	1070	Active	220	2890
COc1ccc2c3ccnc(C)c3n(CCNC(=O)OC/C=C/c3ccc([N+](=O)[O-])cc3)c2c1	–	0.92	–	330	Active	360	–
COc1ccc2c3ccnc(C)c3n(CCNC(=O)/C=C/c3ccc(C)cc3)c2c1	6	0.65	8160	640	Active	980	–
COc1ccc2c3ccnc(C)c3n(CCNC(=O)OC/C=C/c3ccccc3)c2c1	18.5	2.49	7210	1370	Active	550	3380
COc1ccc2c3ccnc(C)c3n(CCNC(=O)OC/C=C/c3ccc(C(F)(F)F)cc3)c2c1	8.49	0.89	6710	700	Active	790	–
COc1ccc2c3ccnc(C)c3n(CCNC(=O)OC/C=C/c3cccc(OC(F)(F)F)c3)c2c1	12.8	2.62	8710	1780	Active	680	–
COc1ccc2c3ccnc(C)c3n(CCNC(=O)OC/C=C/c3cccc(C(F)(F)F)c3)c2c1	–	3.84	–	1920	Active	500	–
CCCOc1ccc(/C=C/CNC(=O)NCCn2c3cc(OC)ccc3c3ccnc(C)c32)cc1	10.3	2.67	4330	1120	Active	420	–
COc1cc(NC(C)CCCN)c2ncccc2c1 (configuration not stated)	–	–	–	–	Active	–	–
COc1ccc2c3ccnc(C)c3n(CCNC(=O)/C=C/c3ccc([N+](=O)[O-])cc3)c2c1	31.8	1.51	17500	2050	Active	1360	–
COc1ccc2c3ccnc(C)c3n(CCNC(=O)OC/C=C/c3cc(C(F)(F)F)cc(C(F)(F)F)c3)c2c1	21.8	4.05	7190	2630	–	650	–
COc1ccc2c3ccnc(C)c3n(CCNC(=O)/C=C/c3ccccc3Cl)c2c1	21.8	1.56	7190	500	Active	320	–
COc1ccc2c3ccnc(C)c3n(CCNC(=O)OC/C=C/c3ccccc3Cl)c2c1	–	1.07	–	1330	–	1240	–
